Test results published in ChEMBL document CHEMBL2176881, “Development of N-[4-[6-(isopropylamino)pyrimidin-4-yl]-1,3-thiazol-2-yl]-N-methyl-4-[11C]methylbenzamide for positron emission tomography imaging of metabotropic glutamate 1 receptor in monkey brain” (J Med Chem, 2012).
Activity calls are given as the source filed them. No cut-off for these calls is given here.

How the values were obtained:
[1] = molecular target: Metabotropic glutamate receptor 5 (Rattus norvegicus, UniProt P31424); assay: Displacement of [11C]-ABP688 from mGlu5 receptor in rat brain homogenates after 1 hr by gamma counting; type: tissue-based
[2] = molecular target: Metabotropic glutamate receptor 1 (Rattus norvegicus, UniProt P23385); assay: Displacement of [18F]FITM from mGlu1 receptor in rat brain homogenates after 1 hr by gamma counting; type: tissue-based
[3] = molecular target: Metabotropic glutamate receptor 1 (Rattus norvegicus) (UniProt P23385); assay: Binding affinity to mGlu1 receptor in rat thalamus at 7.4 MBq after 60 mins by autoradiography; type: tissue-based; conditions: 7.4 M, tested as the 14C-labelled form
[4] = molecular target: Metabotropic glutamate receptor 1 (Rattus norvegicus) (UniProt P23385); assay: Binding affinity to mGlu1 receptor in rat striatum at 7.4 MBq after 60 mins by autoradiography; type: tissue-based; conditions: 7.4 M, tested as the 14C-labelled form
[5] = molecular target: Metabotropic glutamate receptor 1 (Rattus norvegicus) (UniProt P23385); assay: Binding affinity to mGlu1 receptor in rat thalamus; type: tissue-based
[6] = molecular target: Metabotropic glutamate receptor 1 (Rattus norvegicus) (UniProt P23385); assay: Binding affinity to mGlu1 receptor in rat cerebellum at 7.4 MBq after 60 mins by autoradiography; type: tissue-based; conditions: 7.4 M, tested as the 14C-labelled form
[7] = molecular target: Metabotropic glutamate receptor 1 (Rattus norvegicus) (UniProt P23385); assay: Binding affinity to mGlu1 receptor in rat brain cerebral cortex at 7.4 MBq after 60 mins by autoradiography; type: tissue-based; conditions: 7.4 M, tested as the 14C-labelled form
[8] = molecular target: Metabotropic glutamate receptor 1 (Rattus norvegicus) (UniProt P23385); assay: Binding affinity to mGlu1 receptor in rat hippocampus at 7.4 MBq after 60 mins by autoradiography; type: tissue-based; conditions: 7.4 M, tested as the 14C-labelled form
[9] = molecular target: Metabotropic glutamate receptor 1 (Rattus norvegicus) (UniProt P23385); assay: Binding affinity to mGlu1 receptor in rat brain pons at 7.4 MBq after 60 mins by autoradiography; type: tissue-based; conditions: 7.4 M, tested as the 14C-labelled form
[10] = Lipophilicity, log D of the compound by shake flask method; type: physicochemical; conditions: octanol/water
[11] = molecular target: Metabotropic glutamate receptor 1 (Rattus norvegicus) (UniProt P23385); assay: Binding affinity to mGlu1 receptor in rat hippocampus; type: tissue-based
[12] = molecular target: Metabotropic glutamate receptor 1 (Rattus norvegicus) (UniProt P23385); assay: Binding affinity to mGlu1 receptor in rat brain substantia nigra pars reticulate at 7.4 MBq after 60 mins by autoradiography; type: tissue-based; conditions: 7.4 M, tested as the 14C-labelled form
[13] = molecular target: Metabotropic glutamate receptor 1 (Rattus norvegicus) (UniProt P23385); assay: Binding affinity to mGlu1 receptor in rat brain homogenates at 7.4 MBq after 60 mins by autoradiography in presence of unlabeled 4-(6-chloropyrimidin-4-yl)-N-methylthiazol-2-amine; type: tissue-based; conditions: 7.4 M, tested as the 14C-labelled form
[14] = molecular target: Metabotropic glutamate receptor 1 (Rattus norvegicus) (UniProt P23385); assay: Binding affinity to mGlu1 receptor in rat brain homogenates at 7.4 MBq after 60 mins by autoradiography in presence of unlabeled N-[4-[6-(Isopropylamino)pyrimidin-4-yl]-1,3-thiazol-2-yl]- N,4-dimethylbenzamide; type: tissue-based; conditions: 7.4 M, tested as the 14C-labelled form
[15] = molecular target: Metabotropic glutamate receptor 1 (Rattus norvegicus) (UniProt P23385); assay: Binding affinity to mGlu1 receptor in rat striatum; type: tissue-based

Sequence of Metabotropic glutamate receptor 5 (P31424 whole entry): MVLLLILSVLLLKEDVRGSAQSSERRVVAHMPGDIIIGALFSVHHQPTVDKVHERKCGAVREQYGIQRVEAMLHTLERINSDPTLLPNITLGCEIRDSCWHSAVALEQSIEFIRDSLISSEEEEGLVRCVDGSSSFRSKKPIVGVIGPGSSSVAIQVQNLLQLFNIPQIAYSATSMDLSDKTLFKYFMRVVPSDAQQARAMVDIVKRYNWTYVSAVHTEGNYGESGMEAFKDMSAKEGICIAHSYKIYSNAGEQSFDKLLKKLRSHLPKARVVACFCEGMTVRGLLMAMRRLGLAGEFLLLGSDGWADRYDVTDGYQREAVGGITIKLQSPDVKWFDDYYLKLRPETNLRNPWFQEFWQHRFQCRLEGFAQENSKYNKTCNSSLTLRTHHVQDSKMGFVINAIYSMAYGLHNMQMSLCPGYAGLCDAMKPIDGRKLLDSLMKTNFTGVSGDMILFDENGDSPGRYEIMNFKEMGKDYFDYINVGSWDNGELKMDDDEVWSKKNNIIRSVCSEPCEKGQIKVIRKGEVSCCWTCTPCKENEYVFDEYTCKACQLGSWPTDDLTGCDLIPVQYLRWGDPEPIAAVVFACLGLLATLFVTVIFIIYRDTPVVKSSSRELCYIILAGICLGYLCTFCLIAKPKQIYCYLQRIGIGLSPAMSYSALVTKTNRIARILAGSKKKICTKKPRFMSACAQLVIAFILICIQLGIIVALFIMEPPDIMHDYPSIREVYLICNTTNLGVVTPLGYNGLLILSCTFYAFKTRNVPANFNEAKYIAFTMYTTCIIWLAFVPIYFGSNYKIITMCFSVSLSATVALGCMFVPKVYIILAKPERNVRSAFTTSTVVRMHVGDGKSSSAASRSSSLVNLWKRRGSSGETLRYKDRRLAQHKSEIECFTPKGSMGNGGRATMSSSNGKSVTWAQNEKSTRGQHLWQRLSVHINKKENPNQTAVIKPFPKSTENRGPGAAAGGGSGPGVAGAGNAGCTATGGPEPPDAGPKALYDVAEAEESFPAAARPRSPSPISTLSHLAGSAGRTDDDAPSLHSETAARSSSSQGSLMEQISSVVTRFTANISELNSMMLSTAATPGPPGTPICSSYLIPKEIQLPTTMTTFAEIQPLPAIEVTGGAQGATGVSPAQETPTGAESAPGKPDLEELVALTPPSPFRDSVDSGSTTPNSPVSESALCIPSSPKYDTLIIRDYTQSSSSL
Sequence of Metabotropic glutamate receptor 1 (P23385 whole entry): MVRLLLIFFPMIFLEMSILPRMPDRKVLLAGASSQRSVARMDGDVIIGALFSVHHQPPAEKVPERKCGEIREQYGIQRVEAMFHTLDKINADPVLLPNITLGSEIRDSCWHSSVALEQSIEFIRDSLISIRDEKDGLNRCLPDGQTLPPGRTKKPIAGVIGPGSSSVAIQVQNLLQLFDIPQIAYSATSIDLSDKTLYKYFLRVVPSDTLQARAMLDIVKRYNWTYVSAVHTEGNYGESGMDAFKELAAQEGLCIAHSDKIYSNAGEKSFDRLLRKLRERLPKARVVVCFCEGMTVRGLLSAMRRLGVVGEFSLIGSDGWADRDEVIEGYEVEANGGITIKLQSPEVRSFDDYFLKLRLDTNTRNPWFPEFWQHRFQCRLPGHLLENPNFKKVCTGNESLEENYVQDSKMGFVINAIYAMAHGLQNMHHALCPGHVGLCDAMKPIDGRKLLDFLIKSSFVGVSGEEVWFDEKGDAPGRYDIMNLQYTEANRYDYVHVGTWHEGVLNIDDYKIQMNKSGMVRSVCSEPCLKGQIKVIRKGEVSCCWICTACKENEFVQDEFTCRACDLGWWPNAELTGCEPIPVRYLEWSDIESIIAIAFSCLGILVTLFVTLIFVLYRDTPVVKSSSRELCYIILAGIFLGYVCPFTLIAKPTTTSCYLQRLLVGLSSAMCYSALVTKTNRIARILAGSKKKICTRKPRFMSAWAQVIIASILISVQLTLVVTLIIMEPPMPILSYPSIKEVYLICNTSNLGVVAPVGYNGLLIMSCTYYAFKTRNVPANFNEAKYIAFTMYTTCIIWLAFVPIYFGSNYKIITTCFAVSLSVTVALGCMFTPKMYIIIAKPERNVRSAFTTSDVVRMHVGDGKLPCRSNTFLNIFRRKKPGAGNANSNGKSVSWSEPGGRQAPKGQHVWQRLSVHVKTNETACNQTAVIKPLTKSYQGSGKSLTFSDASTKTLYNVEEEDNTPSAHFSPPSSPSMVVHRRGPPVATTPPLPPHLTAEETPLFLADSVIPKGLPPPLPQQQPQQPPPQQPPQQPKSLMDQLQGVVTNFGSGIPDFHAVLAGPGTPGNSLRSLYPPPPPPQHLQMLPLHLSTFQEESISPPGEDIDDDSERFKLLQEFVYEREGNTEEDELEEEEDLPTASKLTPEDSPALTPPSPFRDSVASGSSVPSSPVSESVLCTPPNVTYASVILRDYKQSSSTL
Sequence of Metabotropic glutamate receptor 1 (Rattus norvegicus) (P23385 19-1199 limits assumed): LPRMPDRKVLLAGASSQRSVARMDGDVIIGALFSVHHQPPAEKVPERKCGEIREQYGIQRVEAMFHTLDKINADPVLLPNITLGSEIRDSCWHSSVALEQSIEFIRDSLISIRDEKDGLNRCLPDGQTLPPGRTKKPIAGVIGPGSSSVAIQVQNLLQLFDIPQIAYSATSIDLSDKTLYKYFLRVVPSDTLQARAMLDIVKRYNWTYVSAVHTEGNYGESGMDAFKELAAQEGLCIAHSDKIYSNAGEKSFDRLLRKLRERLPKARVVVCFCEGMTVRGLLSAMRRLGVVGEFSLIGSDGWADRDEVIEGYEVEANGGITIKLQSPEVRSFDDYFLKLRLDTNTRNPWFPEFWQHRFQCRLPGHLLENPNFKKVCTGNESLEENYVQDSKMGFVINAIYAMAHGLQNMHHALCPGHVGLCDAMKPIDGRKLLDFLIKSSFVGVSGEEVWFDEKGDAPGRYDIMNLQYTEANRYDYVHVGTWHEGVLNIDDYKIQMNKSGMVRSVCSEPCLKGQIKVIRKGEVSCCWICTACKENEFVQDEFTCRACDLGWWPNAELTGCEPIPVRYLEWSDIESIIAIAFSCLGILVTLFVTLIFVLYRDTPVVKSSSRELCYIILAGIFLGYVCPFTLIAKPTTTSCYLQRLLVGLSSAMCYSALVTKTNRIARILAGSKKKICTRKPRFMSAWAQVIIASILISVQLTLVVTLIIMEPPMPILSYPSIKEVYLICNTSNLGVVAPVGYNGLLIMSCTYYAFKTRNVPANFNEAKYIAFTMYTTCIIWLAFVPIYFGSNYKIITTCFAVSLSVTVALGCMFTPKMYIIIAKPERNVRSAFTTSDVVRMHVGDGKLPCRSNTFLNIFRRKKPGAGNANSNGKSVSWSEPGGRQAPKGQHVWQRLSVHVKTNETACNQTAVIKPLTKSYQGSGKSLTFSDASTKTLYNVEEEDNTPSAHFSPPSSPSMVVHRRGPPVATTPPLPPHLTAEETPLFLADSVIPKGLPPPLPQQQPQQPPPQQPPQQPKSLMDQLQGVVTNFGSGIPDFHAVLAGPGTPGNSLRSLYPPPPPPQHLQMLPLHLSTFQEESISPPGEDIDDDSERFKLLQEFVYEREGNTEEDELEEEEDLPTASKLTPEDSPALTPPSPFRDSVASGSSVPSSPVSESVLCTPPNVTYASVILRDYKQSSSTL

Row | IC50 [1] [nM] | IC50 [2] [nM] | Ki [2] [nM] | Activity [3] | Activity [4] | Activity [5] [nM] | Activity [6] | Activity [7] | Activity [8] | Activity [9] | logD [10] | Activity [11] [nM] | Activity [12] | Activity [13] | Activity [14] | Activity [15] [nM] | Structure (SMILES)
1 | > 10000 | 64.7 | 27.3 |  |  |  |  |  |  |  |  |  |  |  |  |  | CC(C)Nc1cc(-c2csc(N(C)C(=O)c3ccc(C#N)cc3)n2)ncn1
2 | > 10000 | 47 | 22.2 |  |  |  |  |  |  |  |  |  |  |  |  |  | CC(C)Nc1cc(-c2csc(N(C)C(=O)c3ccc(Cl)cc3)n2)ncn1
3 | > 10000 | 26.5 | 13.6 | Active | Active | 36.3 | Active | Active | Active | Active | 1.74 | 27.5 | Active | inactive | inactive | 22.2 | Cc1ccc(C(=O)N(C)c2nc(-c3cc(NC(C)C)ncn3)cs2)cc1
